Source: ChEMBL document CHEMBL4325863, “Investigating alkyl nitrates as nitric oxide releasing precursors of multitarget acetylcholinesterase-monoamine oxidase B inhibitors” (Eur J Med Chem, 2019)
Calls of active or inactive are those of the source. The calls are words filed in the database; no cut-off is given here.

Columns and labels:
SH-SY5Y [1] = assay: Neuroprotection against rotenone/H2O2-induced cell death in human SH-SY5Y cells assessed as increase in cell viability preincubated for 24 hrs followed by rotenone/H2O2 addition measured after 24 hrs by MTT assay; format: functional, cell-based
[2] = Drug metabolism in PBS buffer assessed as nitric oxide release at 150 uM in presence of cysteine by Griess reagent based UV-Visible spectrophotometric method; conditions: TDE = time-dependent effect
[3] = Apparent permeability from apical to basolateral side in MDCK2-MDR1 cells by UV-Visible spectrophotometric method; format: ADME, cell-based, Canis lupus familiaris; conditions: dog, MDCK-MDR1
Acetylcholinesterase = Acetylcholinesterase (Homo sapiens, UniProt P22303); assay: Inhibition of human recombinant AChE using acetylthiocholine iodide as substrate by Ellman's method
Chain of Acetylcholinesterase (P22303 whole entry): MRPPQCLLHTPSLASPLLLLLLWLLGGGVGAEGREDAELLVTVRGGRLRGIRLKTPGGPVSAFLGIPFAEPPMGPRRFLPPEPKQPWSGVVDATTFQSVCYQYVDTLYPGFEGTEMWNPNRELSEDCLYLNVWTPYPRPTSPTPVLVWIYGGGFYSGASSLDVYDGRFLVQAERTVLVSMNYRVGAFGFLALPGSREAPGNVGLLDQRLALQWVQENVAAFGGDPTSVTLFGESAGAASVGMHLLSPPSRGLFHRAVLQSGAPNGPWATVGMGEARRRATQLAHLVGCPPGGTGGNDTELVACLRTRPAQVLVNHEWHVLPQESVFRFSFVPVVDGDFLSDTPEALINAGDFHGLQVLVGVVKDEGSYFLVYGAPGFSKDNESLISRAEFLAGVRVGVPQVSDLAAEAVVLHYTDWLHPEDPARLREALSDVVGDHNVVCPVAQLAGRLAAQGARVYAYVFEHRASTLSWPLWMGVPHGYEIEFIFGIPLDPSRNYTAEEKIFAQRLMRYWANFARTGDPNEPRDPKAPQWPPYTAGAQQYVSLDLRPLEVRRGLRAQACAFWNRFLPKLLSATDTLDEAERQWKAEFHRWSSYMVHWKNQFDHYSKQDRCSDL

SH-SY5Y [4] = assay: Cytotoxicity against human SH-SY5Y cells assessed as reduction in cell viability after 24 hrs by MTT assay; format: cell-based
[5] = Efflux ratio of apparent permeability in MDCK2-MDR1 cells by UV-Visible spectrophotometric method; format: ADME, cell-based, Canis lupus familiaris; conditions: dog, MDCK-MDR1
[6] = target: T1, Amine oxidase [flavin-containing] B (Homo sapiens, UniProt P27338); assay: Inhibition of recombinant human MAO-B expressed in baculovirus infected insect cell microsomes using kynuramine as substrate measured after 30 mins by fluorescence based assay
T1 sequence (P27338 whole entry): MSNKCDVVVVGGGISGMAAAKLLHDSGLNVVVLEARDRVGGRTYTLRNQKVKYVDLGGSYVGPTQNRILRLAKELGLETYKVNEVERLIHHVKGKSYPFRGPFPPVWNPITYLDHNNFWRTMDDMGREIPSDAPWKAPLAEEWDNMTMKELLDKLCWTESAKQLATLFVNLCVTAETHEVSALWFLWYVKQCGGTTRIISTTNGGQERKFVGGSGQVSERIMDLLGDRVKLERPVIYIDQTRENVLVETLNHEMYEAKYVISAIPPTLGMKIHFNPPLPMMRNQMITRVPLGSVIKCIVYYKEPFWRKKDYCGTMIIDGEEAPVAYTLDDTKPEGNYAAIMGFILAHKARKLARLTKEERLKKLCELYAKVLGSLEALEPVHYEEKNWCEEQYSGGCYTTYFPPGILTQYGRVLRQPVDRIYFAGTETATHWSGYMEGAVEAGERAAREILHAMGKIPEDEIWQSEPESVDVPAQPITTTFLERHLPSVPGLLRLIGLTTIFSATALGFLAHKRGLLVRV

[7] = Apparent permeability from basolateral to apical side in MDCK2-MDR1 cells by UV-Visible spectrophotometric method; format: ADME, cell-based, Canis lupus familiaris; conditions: dog, MDCK-MDR1
[8] = target: T2, Amine oxidase [flavin-containing] A (Homo sapiens, UniProt P21397); assay: Inhibition of recombinant human MAO-A expressed in baculovirus infected insect cell microsomes using kynuramine as substrate measured after 30 mins by fluorescence based assay
T2 sequence (P21397 whole entry): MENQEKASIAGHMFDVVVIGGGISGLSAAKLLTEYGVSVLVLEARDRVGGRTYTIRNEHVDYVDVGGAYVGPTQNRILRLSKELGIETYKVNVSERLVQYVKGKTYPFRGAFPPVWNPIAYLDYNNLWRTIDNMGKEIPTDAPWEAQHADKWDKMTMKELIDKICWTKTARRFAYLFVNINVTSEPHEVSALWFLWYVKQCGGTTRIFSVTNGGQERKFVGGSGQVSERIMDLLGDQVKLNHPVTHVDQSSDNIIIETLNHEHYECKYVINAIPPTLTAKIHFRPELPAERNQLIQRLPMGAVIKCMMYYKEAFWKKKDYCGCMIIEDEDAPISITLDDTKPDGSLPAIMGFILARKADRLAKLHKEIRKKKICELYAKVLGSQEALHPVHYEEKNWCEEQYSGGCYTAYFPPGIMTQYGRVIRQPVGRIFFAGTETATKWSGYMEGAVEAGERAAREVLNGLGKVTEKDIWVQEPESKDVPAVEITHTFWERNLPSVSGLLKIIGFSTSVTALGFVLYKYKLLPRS

[9] = Drug metabolism in pH 7.4 PBS buffer assessed as 7-({1-[3-(Hydroxymethyl)benzyl]piperidin-4-yl}methoxy)-3,4-dimethyl-2H-chromen-2-one formation at 100 uM up to 30 hrs in presence of glutathione by RP-HPLC method
[10] = Half life in human serum at 100 uM by RP-HPLC method; format: ADME, cell-free
[11] = Drug metabolism in pH 7.4 PBS buffer assessed as 7-({1-[3-(Hydroxymethyl)benzyl]piperidin-4-yl}methoxy)-3,4-dimethyl-2H-chromen-2-one formation at 100 uM up to 30 hrs in presence of cysteine by RP-HPLC method
[12] = Drug metabolism in pH 7.4 PBS buffer assessed as 7-({1-[3-(Hydroxymethyl)benzyl]piperidin-4-yl}methoxy)-3,4-dimethyl-2H-chromen-2-one formation at 100 uM after 24 hrs by RP-HPLC method
[13] = Drug metabolism in pH 7.4 PBS buffer assessed as 7-{[1-(3-Hydroxypropyl)piperidin-4-yl]methoxy}-3,4-dimethyl-2H-chromen-2-one formation at 100 uM after 24 hrs by RP-HPLC method
[14] = Drug metabolism in pH 7.4 PBS buffer assessed as 7-{[1-(3-Hydroxypropyl)piperidin-4-yl]methoxy}-3,4-dimethyl-2H-chromen-2-one formation at 100 uM up to 30 hrs in presence of cysteine by RP-HPLC method
[15] = target: T2, Amine oxidase [flavin-containing] A; assay: Inhibition of recombinant human MAO-A expressed in baculovirus infected insect cell microsomes at 10 uM using kynuramine as substrate measured after 30 mins by fluorescence based assay relative to control; conditions: 0.5 h
[16] = Drug metabolism in pH 7.4 PBS buffer assessed as 7-{[1-(3-Hydroxypropyl)piperidin-4-yl]methoxy}-3,4-dimethyl-2H-chromen-2-one formation at 100 uM up to 30 hrs in presence of glutathione by RP-HPLC method
Cholinesterase [17] = target: T3, Cholinesterase (Homo sapiens, UniProt P06276); assay: Inhibition of human serum BuChE at 10 uM using butyrylthiocholine iodide as substrate by Ellman's method relative to control
T3 sequence (P06276 whole entry): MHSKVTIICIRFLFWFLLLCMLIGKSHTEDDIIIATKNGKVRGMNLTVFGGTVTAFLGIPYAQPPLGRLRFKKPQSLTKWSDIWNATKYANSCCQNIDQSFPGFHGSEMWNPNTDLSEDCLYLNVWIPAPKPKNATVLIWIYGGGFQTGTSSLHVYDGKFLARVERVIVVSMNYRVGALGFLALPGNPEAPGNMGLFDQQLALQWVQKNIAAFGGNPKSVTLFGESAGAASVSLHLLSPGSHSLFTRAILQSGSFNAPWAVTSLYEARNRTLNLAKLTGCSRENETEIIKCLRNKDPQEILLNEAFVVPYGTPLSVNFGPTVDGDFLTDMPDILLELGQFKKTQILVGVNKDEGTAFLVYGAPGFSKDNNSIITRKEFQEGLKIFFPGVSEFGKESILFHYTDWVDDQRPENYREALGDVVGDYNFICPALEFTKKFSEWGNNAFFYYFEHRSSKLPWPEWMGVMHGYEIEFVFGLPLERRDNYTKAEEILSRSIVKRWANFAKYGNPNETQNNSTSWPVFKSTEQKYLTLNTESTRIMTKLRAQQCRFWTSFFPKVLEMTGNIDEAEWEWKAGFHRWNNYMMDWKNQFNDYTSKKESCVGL

Cholinesterase [18] = target: T3, Cholinesterase; assay: Inhibition of human serum BuChE using butyrylthiocholine iodide as substrate by Ellman's method
[19] = Drug metabolism in pH 7.4 PBS buffer at 100 uM after 24 hrs by RP-HPLC method
[20] = Drug metabolism in pH 7.4 PBS buffer assessed as 7-({1-[3-(3-Hydroxypropoxy)benzyl]piperidin-4-yl}methoxy)-3,4-dimethyl-2H-chromen-2-one formation at 100 uM up to 30 hrs in presence of glutathione by RP-HPLC method
[21] = Drug metabolism in pH 7.4 PBS buffer at 100 uM after 24 hrs in presence of cysteine by RP-HPLC method
[22] = Drug metabolism in pH 7.4 PBS buffer at 100 uM after 24 hrs in presence of glutathione by RP-HPLC method
[23] = Drug metabolism in pH 7.4 PBS buffer assessed as 7-({1-[3-(3-Hydroxypropoxy)benzyl]piperidin-4-yl}methoxy)-3,4-dimethyl-2H-chromen-2-one formation at 100 uM up to 30 hrs in presence of cysteine by RP-HPLC method
[24] = Drug metabolism in pH 7.4 PBS buffer assessed as 7-({1-[3-(3-Hydroxypropoxy)benzyl]piperidin-4-yl}methoxy)-3,4-dimethyl-2H-chromen-2-one formation at 100 uM up to 30 hrs by RP-HPLC method
[25] = target: T1, Amine oxidase [flavin-containing] B; assay: Inhibition of recombinant human MAO-B expressed in baculovirus infected insect cell microsomes at 10 uM using kynuramine as substrate measured after 30 mins by spectrophotometric assay relative to control; conditions: 0.5 h
[26] = target: Cholinesterase (Equus caballus) (UniProt P81908); assay: Inhibition of equine serum BuChE at 10 uM using butyrylthiocholine iodide as substrate by Ellman's method relative to control
Chain of Cholinesterase (Equus caballus) (P81908 whole entry): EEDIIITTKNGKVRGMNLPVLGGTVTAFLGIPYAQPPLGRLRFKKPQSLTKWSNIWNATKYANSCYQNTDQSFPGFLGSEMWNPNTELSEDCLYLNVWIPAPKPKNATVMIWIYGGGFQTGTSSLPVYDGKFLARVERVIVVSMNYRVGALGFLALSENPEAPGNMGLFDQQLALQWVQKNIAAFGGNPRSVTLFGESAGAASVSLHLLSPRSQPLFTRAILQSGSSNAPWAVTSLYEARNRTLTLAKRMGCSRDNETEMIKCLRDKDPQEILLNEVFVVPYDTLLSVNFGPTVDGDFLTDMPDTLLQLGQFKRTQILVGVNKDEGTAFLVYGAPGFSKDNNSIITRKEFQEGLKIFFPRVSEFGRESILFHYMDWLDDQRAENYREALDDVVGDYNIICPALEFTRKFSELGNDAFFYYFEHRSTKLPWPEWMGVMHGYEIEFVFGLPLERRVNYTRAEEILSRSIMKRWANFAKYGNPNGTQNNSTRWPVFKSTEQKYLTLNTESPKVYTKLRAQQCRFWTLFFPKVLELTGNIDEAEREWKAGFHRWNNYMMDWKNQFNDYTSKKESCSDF

[27] = target: T1, Amine oxidase [flavin-containing] B; assay: Inhibition of recombinant human MAO-B expressed in baculovirus infected insect cell microsomes at 10 uM using kynuramine as substrate measured after 30 mins by fluorescence based assay relative to control; conditions: 0.5 h
[28] = target: Acetylcholinesterase (Electrophorus electricus) (UniProt O42275); assay: Inhibition of electric eel AChE at 10 uM using acetylthiocholine iodide as substrate by Ellman's method relative to control
Chain of Acetylcholinesterase (Electrophorus electricus) (O42275 24-633 limits assumed): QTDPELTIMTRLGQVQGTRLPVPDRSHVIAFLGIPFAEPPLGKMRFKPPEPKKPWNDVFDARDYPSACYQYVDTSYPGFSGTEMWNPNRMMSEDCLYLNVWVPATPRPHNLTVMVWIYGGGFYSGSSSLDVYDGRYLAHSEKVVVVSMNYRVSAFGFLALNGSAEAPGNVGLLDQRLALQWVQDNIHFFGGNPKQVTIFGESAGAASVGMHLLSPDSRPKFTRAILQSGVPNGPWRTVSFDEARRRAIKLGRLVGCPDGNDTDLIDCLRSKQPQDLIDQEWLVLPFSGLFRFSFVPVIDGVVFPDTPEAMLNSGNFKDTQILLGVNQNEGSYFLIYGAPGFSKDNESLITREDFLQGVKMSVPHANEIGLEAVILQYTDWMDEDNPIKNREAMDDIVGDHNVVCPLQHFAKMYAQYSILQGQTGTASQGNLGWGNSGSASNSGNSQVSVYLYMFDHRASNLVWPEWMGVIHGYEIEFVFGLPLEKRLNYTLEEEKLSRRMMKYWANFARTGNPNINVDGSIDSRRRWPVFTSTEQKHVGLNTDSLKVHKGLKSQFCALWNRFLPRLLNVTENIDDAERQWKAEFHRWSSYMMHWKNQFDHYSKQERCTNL

SH-SY5Y [29] = assay: Neuroprotection against rotenone/H2O2-induced cell death in human SH-SY5Y cells assessed as increase in cell viability at 0.1 to […] preincubated for 24 hrs followed by rotenone/H2O2 addition measured after 24 hrs by MTT assay; format: functional, cell-based

Cc1c(C)c2ccc(OCC3CCN(Cc4cccc(CO[N+](=O)[O-])c4)CC3)cc2oc1=O
Activity (SH-SY5Y [1]): Dose-dependent effect
Drug metabolism [2]: Tde
Papp A→B [3]: 12.4 ×10⁻⁶ cm/s
IC50 (Acetylcholinesterase): 1300 nM
Activity (SH-SY5Y [4]): 36 µM
efflux ratio [5]: 1.33
IC50 [6]: 51 nM
Papp B→A [7]: 16.5 ×10⁻⁶ cm/s
IC50 [8]: 230 nM
Drug metabolism [9]: Metabolite detected
half-life at 100 µM [10]: 36.8 h
Drug metabolism [11]: Metabolite detected
Drug metabolism [12]: 7%

Cc1c(C)c2ccc(OCC3CCN(CCCO[N+](=O)[O-])CC3)cc2oc1=O
Activity (SH-SY5Y [1]): Dose-dependent effect
Drug metabolism [13]: Metabolite detected
Drug metabolism [2]: Tde
Papp A→B [3]: 4.96 ×10⁻⁶ cm/s
IC50 (Acetylcholinesterase): 860 nM
Activity (SH-SY5Y [4]): > 100 µM
Drug metabolism [14]: Metabolite not detected
efflux ratio [5]: 3.17
IC50 [6]: 250 nM
Papp B→A [7]: 15.7 ×10⁻⁶ cm/s
inhibition at 10 µM [15]: 36%
Drug metabolism [16]: Metabolite not detected
inhibition (Cholinesterase [17]): < 5%
half-life at 100 µM [10]: 23 h

Cc1c(C)c2ccc(OCC3CCN(Cc4cccc(OCCCO[N+](=O)[O-])c4)CC3)cc2oc1=O
IC50 (Cholinesterase [18]): 800 nM
Drug metabolism [19]: > 50%
Drug metabolism [20]: Metabolite not detected
Drug metabolism [21]: > 50%
Drug metabolism [2]: Tde
IC50 (Acetylcholinesterase): 480 nM
Drug metabolism [22]: > 50%
IC50 [6]: 550 nM
IC50 [8]: 1200 nM
Drug metabolism [23]: Metabolite not detected
Drug metabolism [24]: Metabolite detected
half-life at 100 µM [10]: 458 h

O=c1ccc2ccc(OCC3CCN(CCCO)CC3)cc2o1
inhibition at 10 µM [25]: 39%
inhibition at 10 µM [15]: 26%
inhibition [26]: 26%
inhibition at 10 µM [27]: 48%
inhibition [28]: 38%

COc1cc2c(cc1OC)C(=O)C(CC1CCN(Cc3ccccc3)CC1)C2 (stereo not given)
Activity (SH-SY5Y [29]): Active
